{
  "source": "patent US6727278B1",
  "about": "“Pharmaceutically active agents that impede amyloid formation in vivo” (DMS Pharmaceutical Inc., priority 1986, dated 2004)",
  "key": {"DMS (dense microspheres)": {"test_system": "DMS (dense microspheres)", "test": "Test 1: in vitro disruption of DMS on a glass slide, Congo Red red-green birefringence", "details": "for anti-amyloid activity in vitro: concentration of about 10^−2 M; for activity in the in vitro assay: 10^−2-to-10^−3 M concentration range", "text": "TEST 1 In vitro Disruption of DMS on a Glass Slide\nHomogeneous DMS preparations are placed by droplet on a clean dry glass slide. The volume and number of DMS used is optional but is recommended to be at least several thousand to facilitate interpretation (see Example 1 below). Larger samples are more costly but are easier and more unequivocal to examine. The DMS are mechanically disrupted using a stainless steel spatula scraping and pressing the DMS against a glass slide in repetitive manual back and forth motions for one minute. The slide is allowed to air dry. A few drops of Congo Red stain are then added to the dried slide and gently passed over the dried disrupted DMS for 30 seconds and the stain is then drained off the slide onto tissue paper or filter paper. The slide is then examined in the light microscope, the latter fitted with crossed polarizing lenses to assess red-green congophilic birefringence.\nThe result is an unequivocal red-to-green (“apple green”) birefringence similar to the red-to-apple green birefringence found in the senile-plaque amyloid of Alzheimer patients, and in quantities proportional to the volume of DMS applied to the slide initially.\nFor test purposes, a corresponding DMS sample is contacted with a possible pharmacological agent, and the DMS disruption/staining procedure as described above is repeated. Many variations are possible, e.g., the active agent may be applied to the DMS in solution, before application to the slide, or to the DMS on the slide. In any event, if the agent prevents the red-green birefringence observed in the negative control slide (no agent present), then the active agent should be tested further for efficacy against cerebral amyloidosis.\nApproximately 80,000 homogeneously extracted DMS were placed in a droplet from a Pasteur pipette onto a glass slide, and the droplet was air dried. The DMS adhered to the glass slide. Acetylcholine (20 mM) in physiological saline was added in a droplet, as a possible test compound, to DMS.\nThe DMS were mechanically disrupted, in the presence of the test compound, as described above and then were allowed to air dry. A control slide was treated exactly in the same manner, except that the test compound was not added. Congo Red stain was added, and the reaction products were examined, as previously described."}, "[1]": {"details": "cited from earlier work"}, "human DMS": {"test_system": "human DMS", "test": "In vivo assay: amyloid formation induced by intracerebral injection of human DMS with the compound, Congo Red histology", "parameters": "species or system Male Wistar rats", "details": "for Mean Lesion Area Composed of CBADs: percentage of lesion area, ** = significant decrease from untreated controls; for inhibition of amyloid formation in vivo: in-tissue levels in the range of 10^−5 to 10^−6 M"}, "[2]": {"details": "cited from earlier work", "remark": "listed apart in the source"}, "[3]": {"details": "10^−5 − 10^−6M, CBADs = Congophilic Birefringent Amyloid Deposits"}},
  "data": [
    {"molecule": "O=C(O)c1cccnc1C(=O)O", "note": "[2,3-pyridine-dicarboxylic acid]", "values": [
      {"measurement": "anti-amyloid activity in vitro", "setting": "DMS (dense microspheres)", "value": "anti-amyloid activity"}
    ]},
    {"molecule": "Cc1cc(Cl)nc(N)n1", "note": "[2-amino-4-chloro-6-methyl pyrimidine]", "values": [
      {"measurement": "anti-amyloid activity in vitro", "setting": "DMS (dense microspheres)", "value": "anti-amyloid activity"}
    ]},
    {"molecule": "Nc1nc(O)nc2[nH]ncc12", "note": "[4-amino-6-hydroxypyrazolo [3,4-D] pyrimidine]", "values": [
      {"measurement": "anti-amyloid activity in vitro", "setting": "DMS (dense microspheres)", "value": "anti-amyloid activity"}
    ]},
    {"molecule": "CCc1nc(N)nc(N)c1-c1ccc(Cl)cc1", "note": "[Daraprim, Pyrimethamine]", "values": [
      {"measurement": "oral absorption", "setting": "[1]", "value": "completely absorbed orally"},
      {"measurement": "Mean Number of CBADs Per Animal", "setting": "human DMS; [3]", "value": 4},
      {"measurement": "Mean Lesion Area Composed of CBADs", "setting": "human DMS; 10^−5 − 10^−6M", "value": "0.2**"},
      {"measurement": "inhibition of amyloid formation in vivo", "setting": "human DMS", "value": "inhibit amyloid formation in vivo"}
    ]},
    {"molecule": "Cc1noc(NS(=O)(=O)c2ccc(N)cc2)c1C", "note": "[Gantrisin, Sulfisoxazole]", "values": [
      {"measurement": "absorption and excretion", "setting": "[1]; route not stated", "value": "rapidly absorbed and excreted"},
      {"measurement": "Mean Number of CBADs Per Animal", "setting": "human DMS; 10^−2M", "value": 1},
      {"measurement": "Mean Lesion Area Composed of CBADs", "setting": "human DMS; 10^−2M", "value": "0.1**"},
      {"measurement": "Mean Number of CBADs Per Animal", "setting": "human DMS; [3]", "value": 108},
      {"measurement": "Mean Lesion Area Composed of CBADs", "setting": "human DMS; 10^−5 − 10^−6M", "value": 8.4}
    ]},
    {"molecule": "O=C([O-])c1cc(=O)c2c(OCC(O)COc3cccc4oc(C(=O)[O-])cc(=O)c34)cccc2o1.[Na+].[Na+]", "note": "[Intal, Cromolyn Sodium]", "values": [
      {"measurement": "fraction entering the lungs", "setting": "[1]; administered as a powder from an inhaler", "value": "about 10%"},
      {"measurement": "oral absorption", "setting": "[1]", "value": "poorly absorbed orally"},
      {"measurement": "Mean Number of CBADs Per Animal", "setting": "human DMS; [3]", "value": 2},
      {"measurement": "Mean Lesion Area Composed of CBADs", "setting": "human DMS; 10^−5 − 10^−6M", "value": "0.4**"}
    ]},
    {"molecule": "OCCN(CCO)c1nc(N2CCCCC2)c2nc(N(CCO)CCO)nc(N3CCCCC3)c2n1", "note": "[Persantine, 2,6-bis-(diethanolamino)-4,8-dipiperidinopyrimido-(5,4-d)-pyrimidine]", "values": [
      {"measurement": "Mean Number of CBADs Per Animal", "setting": "human DMS; 10^−2M", "value": 4},
      {"measurement": "Mean Lesion Area Composed of CBADs", "setting": "human DMS; 10^−2M", "value": "0.2**"},
      {"measurement": "Mean Number of CBADs Per Animal", "setting": "human DMS; [3]", "value": 146},
      {"measurement": "Mean Lesion Area Composed of CBADs", "setting": "human DMS; 10^−5 − 10^−6M", "value": 14.6}
    ]},
    {"molecule": "Cl.Nc1c2c(nc3ccccc13)CCCC2", "note": "[THA, 9-amino-1,2,3,4-tetrahydroacridine hydrochloride]", "values": [
      {"measurement": "anti-amyloid activity in vitro", "setting": "DMS (dense microspheres)", "value": "anti-amyloid activity"}
    ]},
    {"molecule": "NC(=O)N1c2ccccc2C=Cc2ccccc21", "note": "[carbamazepine]", "values": [
      {"measurement": "activity in the in vitro assay", "setting": "DMS (dense microspheres)", "value": "inactive"}
    ]},
    {"molecule": "CC[C@H]1OC(=O)[C@H](C)[C@@H](O[C@H]2C[C@@](C)(OC)[C@@H](O)[C@H](C)O2)[C@H](C)[C@@H](O[C@@H]2O[C@H](C)C[C@H](N(C)C)[C@H]2O)[C@](C)(O)C[C@@H](C)C(=O)[C@H](C)[C@@H](O)[C@]1(C)O", "note": "[erythromycin, Erythromycin]", "values": [
      {"measurement": "solubility in water", "setting": "[2]", "value": "water-soluble"},
      {"measurement": "half-life", "setting": "[1]; in vivo", "value": "about sixteen"},
      {"measurement": "Mean Number of CBADs Per Animal", "setting": "human DMS; [3]", "value": 2},
      {"measurement": "Mean Lesion Area Composed of CBADs", "setting": "human DMS; 10^−5 − 10^−6M", "value": "0.2**"},
      {"measurement": "inhibition of amyloid formation in vivo", "setting": "human DMS", "value": "inhibit amyloid formation in vivo"}
    ]},
    {"molecule": "CN(C)C(=O)Oc1cccc([N+](C)(C)C)c1", "note": "[neostigmine methylsulfate]", "values": [
      {"measurement": "activity in the in vitro assay", "setting": "DMS (dense microspheres)", "value": "not to be active"}
    ]},
    {"molecule": "O=P(O)(O)O[C@H]1[C@H](OP(=O)(O)O)[C@@H](OP(=O)(O)O)[C@H](OP(=O)(O)O)[C@@H](OP(=O)(O)O)[C@H]1OP(=O)(O)O", "note": "[phytic acid]", "values": [
      {"measurement": "activity in the in vitro assay", "setting": "DMS (dense microspheres)", "value": "not to be active"}
    ]},
    {"molecule": "CN(C)C(=O)Oc1ccc[n+](C)c1", "note": "[pyridostigmine bromide]", "values": [
      {"measurement": "activity in the in vitro assay", "setting": "DMS (dense microspheres)", "value": "not to be active"}
    ]},
    {"molecule": "CSc1ccc2c(c1)N(CCC1CCCCN1C)c1ccccc1S2", "note": "(stereo not shown) [thioridazine]", "values": [
      {"measurement": "activity in the in vitro assay", "setting": "DMS (dense microspheres)", "value": "inactive"}
    ]},
    {"molecule": "O=c1n(CCCN2CCN(c3cccc(Cl)c3)CC2)nc2ccccn12", "note": "[trazodone]", "values": [
      {"measurement": "activity in the in vitro assay", "setting": "DMS (dense microspheres)", "value": "inactive"}
    ]},
    {"molecule": "O=C1N(Cc2ccccc2)C2C[S+]3CCCC3C2N1Cc1ccccc1", "note": "(stereo not shown) [trimethophan camsylate]", "values": [
      {"measurement": "activity in the in vitro assay", "setting": "DMS (dense microspheres)", "value": "inactive"}
    ]},
    {"molecule": "CCCC(CCC)C(=O)O", "note": "[valproic acid]", "values": [
      {"measurement": "activity in the in vitro assay", "setting": "DMS (dense microspheres)", "value": "inactive"}
    ]}
  ]
}
